Data from patent US20140212437A1, “METHODS AND COMPOSITIONS FOR TREATING ATRIAL FIBRILLATION” (THE REGENTS OF THE UNIVERSITY OF MICHIGAN, priority 2013, published 2014).
“Also recorded” adds a separate entry of the source.

Key:
SCN5A = assay: mRNA analysis by qPCR, SCN5A; type: cell-based, rat
Experimental: (§1) Cell Treatment: Isolated adult rat cardiac myocytes were treated with FCM or TGF-β1 (R and D systems, Minneapolis, Minn.) for 3 days in serum free medium. For PI3K pathway inhibition cells were pretreated (30 min) with 10 μM […] (Cayman Chemicals, Ann Arbor) before the treatment with TGF-β1.
(§2) mRNA analysis by quantitative PCR (qPCR): Cardiac myocytes were washed with PBS and lysed with lysis buffer. RNA was isolated from the myocardial tissue using RNAeasy kit from Qiagen (Qiagen, Valencia, Calif.) according to the manufacturer's instructions. Isolated RNA from these samples was treated with DNase for 15 min at room temperature (Qiagen, Valencia. CA). 100 ng of DNA-free total poly-A tail RNA (mRNA) was first subjected to synthesis of cDNA using Oligo dT primers applying SuperScript III First-Strand Synthesis System from Invitrogen (Invitrogen, Carlsbad, Calif.) according to the manufacturer's instructions. cDNA from 20 ng of total RNA was then subjected to real-time RT-PCR using predesigned taqman probe primers specific for rat Scn5a (Rn00565502), Kcnip2 (Kchip2; Rn01411451) and kcnd2 (Rn01456260) (Applied Biosystems, California). No-template controls and no-RT controls were run during each experiment to detect any RNA and/or DNA contamination. Results are expressed as fold expression of gene of interest normalized to GAPDH expression in the sample.

FOXO1 = assay: Western blot of FOXO1 phosphorylation; type: cell-based, rat
Experimental: as §1
Western blotting: Control and treated cardiac myocytes were washed in cold PBS, lysed directly in the modified loading buffer (25 mmol/l Tris.HCl; 150 mmol/l NaCl; 1 mmol/l EDTA; 4 mmol/l NaF; 2 mmol/l Sodium ortho-vanadate; 1% Triton X-100, protease inhibitor, 5% glycerol, 1% SDS, 0.05% bromophenol blue. 5% β mercaptoethanol) and sonicated. The lysate (20 μl) were then subjected SDS-PAGE as described earlier. The blots were incubated with rabbit pFOXO1 antibody, 1:500 (Cell Signaling) or rabbit GAPDH antibody, 1:5000 (Sigma-Aldrich, St. Louis, Mo.).

[1] = test system: adult sheep atrial fibroblasts; assay: Cell proliferation, WST reagent; type: cell-based; details: 1-30 μg/ml, 24 hours, SFM
Experimental: (§3) Wound healing experiments were performed to investigate if exogenous Gal-3 can increase myofibroblast migration in vitro (FIG. 3). Adult sheep atrial fibroblasts were cultured in 96-well plates until confluent. Before serum starvation, cells were stained with cell tracker dye and DAPI. A wound was created by scraping a semi-confluent monolayer of cells with a 1 ml pipette tip. Thereafter, cells underwent serum starvation in DMEM with […] for 6 hrs. Comparisons were made between untreated and Gal-3 treated (1 μg/ml or 10 μg ml) cells. The wound was imaged at 4 different locations at 3 different time points (days 0, 1 and 2). The size of the wound was quantified using the NIS element program by Nikon. […] Next, to investigate the effects of Gal-3 on myofibroblast proliferation, adult sheep atrial fibroblasts were treated with recombinant human Gal-3 (EMD chemicals, USA) for 24 hours in the presence of SFM. FM was included as a positive control. Cell proliferation was measured using cell proliferation reagent WST (Roche Diagnostics, USA). […] Such concentrations are in the same range used previously (Sharma et al., Circulation. 2004; 110:3121-3128) to investigate Gal-3 induced fibroblast proliferation in the cardiomyopathic heart. […] In addition, the results strongly support the therapeutic value of Gal-3 inhibitors.

[2] = test system: adult sheep atrial fibroblasts; assay: Wound healing (in vitro migration) assay; type: cell-based; details: Gal-3 vs untreated cells, days 0-2
Experimental: as §3

KCNIP2 = assay: mRNA analysis by qPCR, KCNIP2; type: cell-based, rat; details: 1 ng/ml, 72 hr
Experimental: as §2

[3] = test system: adult rat ventricular myocytes; assay: Whole-cell patch clamp, sodium current (INa); type: cell-based
Experimental: as §1
Patch-clamp experiments: Whole-cell ionic currents were recorded from adult rat ventricular myocytes. All recordings were conducted at room temperature. Sodium current recordings were conducted in a low-sodium extracellular solution containing (in mM): NaCl, 10; MgCl2, 1; CaCl2, 1.8; CdCl2, 0.1; HEPES, 20; CsCl, 127.5; glucose, 11. The pipette solution contained (in mM): NaCl, 5; CsF, 135; EGTA, 10; MgATP, 5; HEPES, 5. To characterize the voltage dependence of the peak INa, single cells were held at −120 mV, and 200 msec voltage steps were applied from −90 to +30 mV in 5 mV increments. The interval between voltage steps was 3 sec. Voltage-dependence of inactivation was assessed by holding cells at various potentials from −160 to −40 mV followed by a 30 msec test pulse to −40 mV to elicit INa. Recovery from inactivation was studied by holding cells at −120 mV and applying two 20-msec test pulses (S1, S2) to −40 mV separated by increments of 2 msec to a maximum S1-S2 interval of 80 msec. The S1-S1 interval was kept constant at 3 sec.
(§4) In all experiments, cells were exposed to one of the following for 72 hrs prior to the experiment: control medium, FCM or TGF-β1.

[4] = test system: adult rat ventricular myocytes; assay: Action potential recording, current clamp; type: cell-based
Experimental: as §1
Action potentials were recorded from individual myocytes using the current clamp mode of the MultiClamp 700B amplifier after gigaseal formation and patch break. Stimulus pulses (1-2 ms duration) were generated using a World Precision Instruments DS8000 stimulator (Sarasota, Fla.). The bath solution contained (in mM): NaCl: 148, KCl: 5.4, MgCl2: 1, CaCl2 1.8, NaH2PO4: 0.4, HEPES: 15, Glucose: 5.5, pH 7.4 with NaOH. The pipette solution contained (in mM), KCl: 20, K-aspartate: 90, KH2PO4: 10, EDTA: 5.0. K2ATP: 1.9, HEPES: 5.0 and Mg2+ 7.9; pH 7.2 (KOH)

[5] = test system: adult rat ventricular myocytes; assay: Whole-cell patch clamp, transient outward potassium current (Ito); type: cell-based; details: 72-hr
Experimental: as §1
The extracellular solution for transient outward potassium current (Ito) contained (in mM): 136 NaCl, 4 KCl, 1.8 CaCl2, 2 MgCl2, 10 HEPES, 0.03 tetrodotoxin. 0.01 nifedipine, and 14 glucose, pH 7.35. The pipette solution contained (in mM): 135 KCl, 1 MgCl2, 10 EGTA, 10 HEPES, 5 glucose, pH 7.2. Voltage-gated outward K+ currents were evoked during 5-s depolarizing voltage steps to potentials between −40 and +60 mV from a holding potential of −70 mV; voltage steps were presented in 10 mV increments at 15 s intervals
as §4

KCND2 = assay: mRNA analysis by qPCR, KCND2; type: cell-based, rat; details: 1 ng/ml, 72 hr
Experimental: as §2

With O=c1cc(N2CCOCC2)oc2c(-c3ccccc3)cccc12 [LY 29004, reference compound] the “TGF-β1-induced increase in SCN5A transcription” value (SCN5A; pretreated 30 min with 10 μM) was “failed to show increased SCN5A transcription” and the “phosphorylation of FOXO1 in TGF-β1 treated cells” value (FOXO1; pretreated 30 min with 10 μM) was “inhibited”.
For “Gal-3: recombinant human Gal-3 (EMD chemicals, USA) added exogenously to sheep atrial fibroblasts”, the “number of adult sheep atrial myofibroblasts (proliferation)” value [1] was “increased the number of adult sheep atrial myofibroblasts in a concentration-dependent manner; also recorded: increases proliferation” and the “rate of migration / wound healing” value [2] was “significantly increased the rate of migration and promoted wound healing; also recorded: increases the rate of wound healing”.
In the case of TGF-β1, the “reduction of mRNA levels of KCNIP2” value (KCNIP2) is reported as 77%, the “maximum INa increase” value ([3]; 1 ng/ml, 72 hours, also seen at 10 ng/ml) is reported as “about 40%” and the “more inward current compared to control medium” value ([3]; 1 ng/ml, at −40V) is reported as “about 40%”. The “peak INa density compared to control” value ([3]; 1 ng/ml, step voltages between −60 mV and −30 mV, p<0.05-0.01) was “significantly increased the peak INa density”, the “EC50 for peak inward INa density” value ([3]; 72 hours, 0.001-1.0 ng/ml) was 0.007 ng/mL and the “voltage dependence of activation (m∞) and inactivation (h∞)” value ([3]; 72 hr treatment or viral overexpression) was “neither the m∞ nor the h∞ curve was modified”. For the same compound, the “SCN5A transcript levels, increase” value (SCN5A; 1 ng/ml, 72 hr) was 1.73±0.26 fold, the “increase in phosphorylated FOXO1 compared to control” value (FOXO1; 1 ng/ml) was 67% and the “exposure time of peak FOXO1 phosphorylation” value (FOXO1; 1 ng/ml, phosphorylation seen at 5 min) was 15 min. The “action potential duration (APD)” value ([4]; 10 ng/ml, 72 hours) was “basic cycle length (BCL) dependent action potential duration (APD) prolongation”, the “APD30 relative to control” value ([4]; 10 ng/ml, BCL of 1000 ms) was > 3.5 times and the APD30 ([4]; 10 ng/ml, BCL of 1000 ms, control 8.1±3.6) was 29.1 ± 5.6 ms. The “action potential duration / early afterdepolarizations” value ([4]; 50 ng/ml) was “APD was so prolonged that some cells early afterdepolarizations (EADs)”, the “peak Ito” value ([5]; 1 ng/ml) was “significantly reduced the peak Ito but to a much modest level” and the “Ito current density, % of control levels” value ([5]; 10 ng/ml, at 60 mV) was 57%. The “reduction of Ito current density” value ([5]; 10 ng/ml, at +20 mV) was 42%, the “Ito current density at 60 mV” value ([5]; 10 ng/ml, control 22.2±1.2) was 12.6±0.98 and the “Ito compared to control” value ([5]; 10 ng/ml, voltages between +20 mV and +60 mV) was “significantly lower than control”. For the same compound, the “decrease of KCND2 expression with respect to control” value (KCND2) was 50.6%.
